Consider 108 sequences from paper PMC12057046, “Elucidation of short linear motif-based interactions of the MIT and rhodanese domains of the ubiquitin-specific protease 8” (Biology Direct, 2025).

One test has as its target T1, USP8 Rhod domain (Homo sapiens, UniProt P40818).
T1 construct: USP8 Rhod (174–317) (UniProt: P40818); GST (cleaved yes); made in house; host or cells: Escherichia coli BL21-Gold (DE3)
T1 sequence (P40818 174-317): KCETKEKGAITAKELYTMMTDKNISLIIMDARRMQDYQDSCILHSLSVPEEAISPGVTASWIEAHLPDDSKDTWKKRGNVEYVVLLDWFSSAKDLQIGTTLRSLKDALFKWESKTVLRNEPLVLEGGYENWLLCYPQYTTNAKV
Description: Peptide-phage display-based deep mutational scanning (DMS), USP8 Rhod domain. The class given is binding. The conditions noted are these: ProP-PD DMS, bait USP8_Rhodanese__P40818_174_317; pair wild-type GMERVLGGLSSPLRLL (wt_00013) vs mutant; positive where wild-type fraction is higher, negative where mutant fraction is higher. As for the experimental part:
Four rounds of phage selections were carried out using the second generation human disorderome library or the constructed deep mutational scanning library. At least three individual replicates were used for each bait protein. 10 µg of GST-tagged proteins or GST control (diluted in PBS from the stock of proteins kept in the purification elution buffer) were immobilized in 100 µL PBS on a 96-well MaxiSorp (Nunc) plate overnight at 4 °C. The plates were incubated with blocking buffer (with 0.5% BSA in PBS) for 1 h at 4 °C followed by washing with 0.05% Tween 20 in PBS four times. The naïve phage library (10^11 CFU) was diluted in 1/5th volume PEG/NaCl (20% PEG-8000, 0.4 M NaCl) and 1X PBS, incubated on ice for 10 min and centrifuged at 10,000 [drawing 3] g for 10 min. The pellet was resuspended in the volume of PBS (100 µL/ well). The GST-coated control plate was incubated with 100 µL library per well in PBS for 1 h at 4 °C to remove non-specific binders. The supernatant was transferred to the target wells and incubated for 2 h at 4 °C. The wells were washed five times with 0.05% Tween 20 in PBS and the bound phages were eluted with 100 µL per well log-phase E. coli OmniMAX by incubating at 37° C while shaking. After 30 min, M13KO7 helper phages were added and incubated for an additional 45 min. The bacterial cultures were transferred to 1 mL 2YT supplemented with 100 µg/mL carbenicillin, 30 µg/mL kanamycin and 0.3 mM IPTG and grew overnight at 37 °C while shaking. The following day the cultures were centrifuged for 10 min at 2,000 [drawing 4] g, 4 °C. 1/10th volume of 10 [drawing 5] PBS was added to adjust the pH and heated at 65 °C for 10 min. The phage pools from each round were used as in-phages for the next round of selections.
The samples were prepared for NGS as previously described. […] The PCR products were normalized with 25 µL Mag-bind Total Pure NGS beads (Omega Biotek) and 10 µL of each eluted sample (Qiagen Elution Buffer) was pooled and cleaned-up with a PCR purification kit (Qiagen). The PCR product was confirmed by 2% agarose electrophoresis and the band was extracted with QIAquick Gel extraction Kit (Qiagen) and eluted with 30 µL TE buffer. The dsDNA was quantified using QuantiT PicoGreen dsDNA Assay Kit (Thermo Fisher) and sent for NGS (Illumina MiSeq v3, 1 × 150 bp read setup, 20% PhiX, NGI SciLifeLab facility, Sweden). The NGS data were demultiplexed, adapter regions were trimmed and sequences with an average quality of at least 20 were translated to peptide sequences. The NGS data were analysed using custom Python scripts. The total read NGS counts for each selection experiment of each peptide sequence were compiled and annotated in PepTools (https://slim.icr.ac.uk/tools/peptools/). Since ProP-PD is in essence a competition assay, the possibility of the input phage library influencing the selection outcome was explored. […] Pearson correlation coefficient and p-value were calculated using Python’s SciPy library.
On to GMERVLGGFSSPLRLL, for which the hit_pair_ratio was determined as 53.66.

GMERVLGGGSSPLRLL came in with a hit_pair_ratio of 20.85.

On to GMERVLGGHSSPLRLL, for which the hit_pair_ratio was found to be 49.95.

In turn, GMERVLGGKSSPLRLL came in with a hit_pair_ratio of 20.99.

The sequence GMERVLGGLASPLRLL showed a hit_pair_ratio of 321.97.

GMERVLGGLESPLRLL gave a hit_pair_ratio of 131.67.

The sequence GMERVLGGLHSPLRLL displayed a hit_pair_ratio of 1.07.

Sequence GMERVLGGLISPLRLL returned a hit_pair_ratio of 321.97.

As for GMERVLGGLPSPLRLL, the hit_pair_ratio is 131.67.

As to GMERVLGGLSAPLRLL, the hit_pair_ratio turned out to be 160.99.

The sequence GMERVLGGLSDPLRLL came in with a hit_pair_ratio of -19.71.

Regarding GMERVLGGLSEPLRLL, the hit_pair_ratio is 15.92.

In turn, GMERVLGGLSFPLRLL showed a hit_pair_ratio of 80.49.

In the case of GMERVLGGLSNPLRLL, the hit_pair_ratio is reported as -9.56.

As to GMERVLGGLSRPLRLL, the hit_pair_ratio was determined as 321.97.

Consider GMERVLGGLSSLLRLL, for which the hit_pair_ratio amounted to 321.97.

The sequence GMERVLGGLSSPARLL came in with a hit_pair_ratio of 46.00.

GMERVLGGLSSPDRLL: the hit_pair_ratio worked out at 54.66.

GMERVLGGLSSPERLL: the hit_pair_ratio was 4.36.

Turning to GMERVLGGLSSPFRLL, the hit_pair_ratio stood at 65.83.

As to GMERVLGGLSSPGRLL, the hit_pair_ratio is given as 32.20.

In the case of GMERVLGGLSSPHRLL, the hit_pair_ratio was found to be 80.49.

The sequence GMERVLGGLSSPKRLL registered a hit_pair_ratio of 321.97.

The sequence GMERVLGGLSSPLALL showed a hit_pair_ratio of -3.54.

GMERVLGGLSSPLELL displayed a hit_pair_ratio of 107.32.

GMERVLGGLSSPLFLL came in with a hit_pair_ratio of 1.48.

GMERVLGGLSSPLGLL gave a hit_pair_ratio of 107.32.

Regarding GMERVLGGLSSPLHLL, the hit_pair_ratio is 5.88.

On to GMERVLGGLSSPLILL, for which the hit_pair_ratio is -3.18.

Sequence GMERVLGGLSSPLKLL showed a hit_pair_ratio of 5.73.

For the sequence GMERVLGGLSSPLLLL, the hit_pair_ratio stood at 2.57.

Turning to GMERVLGGLSSPLMLL, the hit_pair_ratio is on record as -10.76.

Consider GMERVLGGLSSPLNLL, for which the hit_pair_ratio was 38.62.

On to GMERVLGGLSSPLQLL, for which the hit_pair_ratio is reported as 59.13.

GMERVLGGLSSPLRAL: the hit_pair_ratio worked out at 160.99.

The sequence GMERVLGGLSSPLRGL had a hit_pair_ratio of 160.99.

Turning to GMERVLGGLSSPLRIL, the hit_pair_ratio worked out at 321.97.

In turn, GMERVLGGLSSPLRLA came in with a hit_pair_ratio of 131.67.

Take GMERVLGGLSSPLRLF: the hit_pair_ratio came out at 80.49.

Turning to GMERVLGGLSSPLRLG, the hit_pair_ratio stood at 321.97.

GMERVLGGLSSPLRLH showed a hit_pair_ratio of 8.26.

The sequence GMERVLGGLSSPLRLI showed a hit_pair_ratio of 4.34.

Turning to GMERVLGGLSSPLRLM, the hit_pair_ratio is reported as -1.86.

Take GMERVLGGLSSPLRLN: the hit_pair_ratio stood at 321.97.

GMERVLGGLSSPLRLP had a hit_pair_ratio of 160.99.

On to GMERVLGGLSSPLRLQ, for which the hit_pair_ratio is 26.83.

Sequence GMERVLGGLSSPLRLT displayed a hit_pair_ratio of 131.67.

Sequence GMERVLGGLSSPLRLV came in with a hit_pair_ratio of 40.25.

With GMERVLGGLSSPLRNL, the hit_pair_ratio came to 160.99.

Regarding GMERVLGGLSSPLRVL, the hit_pair_ratio was determined as 160.99.

The sequence GMERVLGGLSSPLSLL came in with a hit_pair_ratio of -1.20.

In the case of GMERVLGGLSSPLTLL, the hit_pair_ratio was 1.50.

Consider GMERVLGGLSSPLVLL, for which the hit_pair_ratio is listed as -21.41.

GMERVLGGLSSPLWLL came in with a hit_pair_ratio of -1.66.

On to GMERVLGGLSSPLYLL, for which the hit_pair_ratio worked out at 5.39.

In the case of GMERVLGGLSSPMRLL, the hit_pair_ratio came to 7.90.

Turning to GMERVLGGLSSPNRLL, the hit_pair_ratio was 321.97.

Take GMERVLGGLSSPPRLL: the hit_pair_ratio came out at 160.99.

The sequence GMERVLGGLSSPRRLL had a hit_pair_ratio of 160.99.

In the case of GMERVLGGLSSPSRLL, the hit_pair_ratio came to 1.14.

Sequence GMERVLGGLSSPTRLL yielded a hit_pair_ratio of 1.41.

In turn, GMERVLGGLSSPVRLL yielded a hit_pair_ratio of 5.59.

GMERVLGGLSSPWRLL had a hit_pair_ratio of 2.81.

As to GMERVLGGLSSPYRLL, the hit_pair_ratio is 16.65.

Consider GMERVLGGLSSQLRLL, for which the hit_pair_ratio is reported as 321.97.

With GMERVLGGLSSRLRLL, the hit_pair_ratio worked out at 160.99.

Sequence GMERVLGGLSSSLRLL had a hit_pair_ratio of 8.62.

The sequence GMERVLGGLSSTLRLL came in with a hit_pair_ratio of 131.67.

Consider GMERVLGGLSTPLRLL, for which the hit_pair_ratio was determined as 2.98.

In turn, GMERVLGGLSVPLRLL displayed a hit_pair_ratio of 93.45.

Take GMERVLGGLSYPLRLL: the hit_pair_ratio amounted to 321.97.

GMERVLGGLVSPLRLL displayed a hit_pair_ratio of 321.97.

GMERVLGGMSSPLRLL yielded a hit_pair_ratio of 21.15.

For GMERVLGGRSSPLRLL, the hit_pair_ratio was 160.99.

Still in this test, the particulars now being: ProP-PD pairs, bait USP8_Rhodanese__P40818_174_317; wild-type/mutant pair, wild type KIAA1614 569-584 GMERVLGGLSSPLRLL (wt_00013).
For GMERALGGLSSPLRLL, the hit_pair_ratio stood at 4.69.

Turning to GMERDLGGLSSPLRLL, the hit_pair_ratio is -11.89.

For GMERELGGLSSPLRLL, the hit_pair_ratio was -10.69.

Turning to GMERFLGGLSSPLRLL, the hit_pair_ratio is given as -9.37.

Regarding GMERGLGGLSSPLRLL, the hit_pair_ratio is listed as -1.02.

Sequence GMERHLGGLSSPLRLL returned a hit_pair_ratio of -4.18.

Turning to GMERILGGLSSPLRLL, the hit_pair_ratio is recorded as 20.85.

In the case of GMERKLGGLSSPLRLL, the hit_pair_ratio is given as 30.82.

On to GMERLLGGLSSPLRLL, for which the hit_pair_ratio is listed as 5.91.

GMERMLGGLSSPLRLL: the hit_pair_ratio was -1.32.

In turn, GMERNLGGLSSPLRLL yielded a hit_pair_ratio of -2.85.

For GMERPLGGLSSPLRLL, the hit_pair_ratio was 1.07.

Take GMERQLGGLSSPLRLL: the hit_pair_ratio was -6.89.

As to GMERRLGGLSSPLRLL, the hit_pair_ratio is recorded as 16.75.

GMERSLGGLSSPLRLL: the hit_pair_ratio is on record as 12.88.

GMERTLGGLSSPLRLL returned a hit_pair_ratio of -5.12.

Take GMERVFGGLSSPLRLL: the hit_pair_ratio is given as 321.97.

In the case of GMERVGGGLSSPLRLL, the hit_pair_ratio is 29.56.

With GMERVIGGLSSPLRLL, the hit_pair_ratio was -3.21.

Sequence GMERVLAGLSSPLRLL displayed a hit_pair_ratio of -1.35.

As to GMERVLDGLSSPLRLL, the hit_pair_ratio is given as -20.23.

GMERVLEGLSSPLRLL displayed a hit_pair_ratio of -2.19.

Sequence GMERVLFGLSSPLRLL showed a hit_pair_ratio of -3.55.

GMERVLGDLSSPLRLL returned a hit_pair_ratio of 321.97.

In turn, GMERVLGGASSPLRLL returned a hit_pair_ratio of 1.62.

In turn, GMERVLGGDSSPLRLL displayed a hit_pair_ratio of -19.26.

As for GMERVLGGESSPLRLL, the hit_pair_ratio was -80.43.

As for GMERVLGGISSPLRLL, the hit_pair_ratio is recorded as 4.20.

In turn, GMERVLGGNSSPLRLL had a hit_pair_ratio of 1.15.

GMERVLGGPSSPLRLL had a hit_pair_ratio of 2.15.

GMERVLGGQSSPLRLL gave a hit_pair_ratio of -8.29.

The sequence GMERVLGGSSSPLRLL came in with a hit_pair_ratio of 2.67.

Take GMERVLGGTSSPLRLL: the hit_pair_ratio is recorded as -7.40.

GMERVLGGVSSPLRLL registered a hit_pair_ratio of -2.88.
